Like-named read-outs stand apart in the source and are kept apart here.
What was measured:
GSK3β = experiment: Phosphorylation of GSK3β (pSer9) in primary cortical neurons; type: cell-based, mouse; conditions: 2.5 mM metformin over increasing time intervals
Procedure: (§1) Primary cortical neurons were isolated from brain of wt or transgenic (Mapt^tm1(EGFP)klt Tg(MAPT)8cPdav/J; Jackson Laboratory) embryos at day 14.5. Cortices were collected in DMEM (Lonza) and cells were dissociated by incubation with Trypsin/EDTA for 6.5 min at 37° C. Cells were then diluted in neurobasal medium (Gibco-BRL) containing B27 supplement (Gibco BRL). Cells were plated at a density of 4.0×10^5 onto 0.2 mg/ml poly-D-lysin (Sigma) and 2 μg/ml Laminin (Sigma) coated 12 well plates. Neurons were incubated at 37° C. with 8% CO2. One hour after seeding a complete change of medium was performed. Later on, each 96 hours half volumes of the medium were replaced by fresh medium. After 7 days in culture neurons were treated.
Cell pellets were homogenized in Magic-Mix (48% UREA, 15 mM Tris-HCL pH 7.5, 8.7% Glycerin, 1% SDS, 0.004% Bromphenolblue, 143 mM Mercaptoethanol), sonicated and boiled for 5 min at 95° C. Proteins were resolved on 8 or 10% SDS gels and blotted onto PVDF-membranes (Roche). […]

ACC = experiment: Phosphorylation of the AMPK target ACC (Ser79) in primary cortical neurons; type: cell-based, mouse; conditions: 2.5 mM metformin, increasing time intervals
Procedure: as §1
(§2) Cells were incubated with the respective substances as follows: Metformin (Sigma) at final concentrations up to 2.5 mM for 1 to >24 hours, okadaic acid (Sigma) at final concentrations from 1 nM to 10 nM for 4 h, Fostricien (Sigma) at final concentration of 1 μM for 4 h and AICAR (cell signalling) at final concentration of 5 mM for 0.5-16 h. For cell treatment without insulin, medium containing B27+insulin supplement was replaced with medium containing B27-supplement without insulin 24 h before treatment. […]
(§3) Cell pellets were homogenized in Magic-Mix (48% UREA, 15 mM Tris-HCL pH 7.5, 8.7% Glycerin, 1% SDS, 0.004% Bromphenolblue, 143 mM Mercaptoethanol), sonicated and boiled for 5 min at 95° C. […] Antibodies used in this study were purchased from the following companies: Tau-5 (Biosource), anti-human PHF pSer202 (Thermo scientific), Tau pSer356 (Biosource), Tau pSer262 (Biosource), Tau pSer396 (Sigma), Actin (Sigma), ACC (cell signalling), ACC pSer79 (cell signalling), phospho-S6 ribosomal protein pSer241/244 (cell signalling), p70S6 Kinase (cell signalling), p70S6K pThr421/pSer424 (cell signalling), mTOR (cell signalling), AMPK (cell signallling, AMPK pThr172 (cell singnaling), HRP-anti-rabbit (Amersham), HRP-anti-mouse (Dianova). The resulting bands were quantified using Imagequant5.2. […]

PP2A-holoenzymes = experiment: PP2A activity assay (malachite green), PP2A-holoenzymes immunopurified from HeLa cell lysates; type: biochemical; conditions: 10 mM metformin, 1 hour
Procedure: (§4) Either purified PP2Ac (upstate), cell lysates or PP2A-holoenzymes, which were purified by immunoprecipitation using a PP2A-A-subunit antibody (Millipore), were incubated with or without 10 mM metformin or 10 nM okadaic acid for 1 hour. Afterwards PP2A phosphatase activity was determined using a malachite green assay kit (upstate) following the manufacturer's instructions.

α4-PP2Ac association = molecular target: T1, α4-PP2Ac association (Homo sapiens, UniProt P67775+P78318); experiment: Co-immunoprecipitation of PP2Ac and V5-tagged α4 in HeLa cell lysates; type: binding; conditions: 2.5 mM metformin added to lysates of α4-V5 expressing HeLa cells
T1 construct: expressed in transfected cells; host or cells: HeLa
T1 sequence (P78318 whole entry): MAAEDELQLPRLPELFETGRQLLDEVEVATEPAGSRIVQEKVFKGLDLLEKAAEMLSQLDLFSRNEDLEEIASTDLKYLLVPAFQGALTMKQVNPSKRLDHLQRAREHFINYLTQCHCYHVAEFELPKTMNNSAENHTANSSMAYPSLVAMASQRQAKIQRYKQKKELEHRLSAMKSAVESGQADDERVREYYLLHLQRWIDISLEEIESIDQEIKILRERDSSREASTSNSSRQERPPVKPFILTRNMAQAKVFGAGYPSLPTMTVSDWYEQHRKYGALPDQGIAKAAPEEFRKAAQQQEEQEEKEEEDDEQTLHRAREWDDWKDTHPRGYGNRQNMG
T1 sequence (P67775 whole entry): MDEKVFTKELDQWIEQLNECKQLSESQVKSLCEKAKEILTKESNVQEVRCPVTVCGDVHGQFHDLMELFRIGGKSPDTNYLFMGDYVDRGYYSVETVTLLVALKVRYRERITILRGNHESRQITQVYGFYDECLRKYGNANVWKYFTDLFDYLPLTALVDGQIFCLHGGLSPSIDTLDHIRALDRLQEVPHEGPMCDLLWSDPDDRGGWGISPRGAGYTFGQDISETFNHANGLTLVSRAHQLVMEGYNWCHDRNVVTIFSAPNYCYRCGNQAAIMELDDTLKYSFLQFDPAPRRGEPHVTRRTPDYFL

human tau = experiment: Tau phosphorylation by Western blot in primary cortical neurons of mice expressing human tau; type: cell-based; conditions: increasing concentration of metformin over 4 hours
Procedure: as §1
as §2, with “treatment. 3 groups of 2 mice were treated with or without 5 mg/l metformin in the drinking water.” for “treatment.”

S6 = experiment: Brain S6 phosphorylation in mice fed metformin in the drinking water; type: in vivo, mouse; conditions: 5 mg/ml in the drinking water for 16-24 days
Procedure: as §2
(§5) Mice were decapitated and brains were rapidly dissected in nitrogen. […]
as §3

AMPK [1] = experiment: Phosphorylation of AMPK (pThr 172) in primary cortical neurons; type: cell-based, mouse
Procedure: as §1, §2, §3

[2] = system: ribosomal protein S6 (S241/244); experiment: Phosphorylation of ribosomal protein S6 (mTORC1 signalling) in primary neurons from wild-type mice; type: cell-based, mouse
Procedure: as §1
as §2, with “treatment. 3 groups of 2 mice were treated with or without 5 mg/l metformin in the drinking water.” for “treatment.”

[3] = molecular target: T2, purified PP2Ac (catalytic subunit of PP2A) (Homo sapiens, UniProt P67775); experiment: PP2A activity assay (malachite green), purified PP2Ac; type: biochemical; conditions: 10 mM metformin, 1 hour
T2 construct: purchased upstate
T2 sequence (P67775 whole entry): as above
Procedure: as §4

tau [4] = experiment: Brain tau phosphorylation in mice fed metformin in the drinking water; type: in vivo, mouse; conditions: 5 mg/ml in the drinking water for 16-24 days
Procedure: as §2
Mice were decapitated and brains were rapidly dissected in nitrogen. Brains were homogenized in ice-cold lysis buffer containing 10 mmol/l Tris pH 7.5, 150 mM NaCl, 1 mM EDTA, 1 mM EGTA, 1% NP40, protease inhibitors(complete mini, Roche), phosphatase inhibitors (PhosStop, Roche). Lysates were sonicated and centrifuged at 25000 g for 10 min at 4° C.
(§6) Cell pellets were homogenized in Magic-Mix (48% UREA, 15 mM Tris-HCL pH 7.5, 8.7% Glycerin, 1% SDS, 0.004% Bromphenolblue, 143 mM Mercaptoethanol), sonicated and boiled for 5 min at 95° C. Proteins were resolved on 8 or 10% SDS gels and blotted onto PVDF-membranes (Roche). Antibodies used in this study were purchased from the following companies: Tau-5 (Biosource), anti-human PHF pSer202 (Thermo scientific), Tau pSer356 (Biosource), Tau pSer262 (Biosource), Tau pSer396 (Sigma), Actin (Sigma), ACC (cell signalling), ACC pSer79 (cell signalling), phospho-S6 ribosomal protein pSer241/244 (cell signalling), p70S6 Kinase (cell signalling), p70S6K pThr421/pSer424 (cell signalling), mTOR (cell signalling), AMPK (cell signallling, AMPK pThr172 (cell singnaling), HRP-anti-rabbit (Amersham), HRP-anti-mouse (Dianova). The resulting bands were quantified using Imagequant5.2. Statistical analyses were performed using SigmaStat software package (v 3.0, SPSS, USA). For timecourse or dose-response studies, data were analyses by one-way ANOVA with post hoc Dunnett's or Bonferonni test to accommodate for multiple comparisons. A Student's t-test was used for two-group comparisons, as appropriate.

primary cortical neurons = experiment: TUNEL assay on primary cortical neurons; type: cell-based, mouse; conditions: increasing concentrations of metformin, concentrations sufficient to induce tau dephosphorylation
Procedure: Primary neurons were grown on coverslips with a density of 2×10^5 per 12 well. TUNEL assays were performed using TUNEL enzyme (Roche) and TUNEL label (Roche) following the manufacturer's instructions.

MID1-α4-PP2Ac complex = molecular target: T3, MID1-α4-PP2Ac complex (Homo sapiens, UniProt P67775+P78318); experiment: Affinity chromatography of the PP2Ac-MID1 B-box-α4 complex; type: binding; conditions: metformin at different concentrations in the washing buffer
T3 construct: made in house; host or cells: E. coli BL21
T3 sequence (P67775 whole entry): as above
T3 sequence (P78318 whole entry): as the sequence (P78318 whole entry) above
Procedure: The MID1-B-box-domains, α4, or HIS-tagged PP2Ac were expressed in E. coli BL21. Cells were lysed by French press in buffer A (50 mM Na-phosphate, 300 mM NaCl, 20 mM imidazole, pH 8.0). Lysates were mixed and PP2A-protein complexes were immobilized on Ni-NTA columns (Qiagen) and washed extensively with buffer A containing 10% glycerol and 0.25% Tween20. After washing columns were eluted with buffer A containing different concentrations of metformin. Elutions were analyzed on SDS-Gels followed by Coomassie staining.

AMPK [5] = experiment: Brain AMPK phosphorylation in mice fed metformin in the drinking water; type: in vivo, mouse; conditions: 5 mg/ml in the drinking water for 16-24 days
Procedure: as §2, §5, §3

tau [6] = type: cell-based, mouse
Procedure: as §1
(§7) Cells were incubated with the respective substances as follows: Metformin (Sigma) at final concentrations up to 2.5 mM for 1 to >24 hours, okadaic acid (Sigma) at final concentrations from 1 nM to 10 nM for 4 h, Fostricien (Sigma) at final concentration of 1 μM for 4 h and AICAR (cell signalling) at final concentration of 5 mM for 0.5-16 h. For cell treatment without insulin, medium containing B27+insulin supplement was replaced with medium containing B27-supplement without insulin 24 h before treatment. 3 groups of 2 mice were treated with or without 5 mg/l metformin in the drinking water.
as §6

ribosomal protein S6 = experiment: Phosphorylation of S6 in rat hepatoma cell line H4IIE; type: cell-based; conditions: 2.5 mM, 16 hours
Procedure: as §6

p70S6kinase = experiment: Phosphorylation of p70S6kinase in primary cortical neurons; type: cell-based, mouse; conditions: 2.5 mM metformin over increasing time intervals
Procedure: as §1, §7, §6

[7] = 2 mg/ml in the drinking water fed to mice for 6 days; cited from earlier work
[8] = dosages applied to patients with Type II Diabetes; cited from earlier work
PP2A = molecular target: T4, PP2A (Mus musculus, UniProt P63330); experiment: PP2A activity in lysates of metformin-treated primary neurons; type: cell-based; design: dose or concentration left out as unconfirmed
T4 construct: treated primary neurons with metformin and analyzed PP2A activity in the cell lysates; endogenous in cells; host or cells: primary neurons
T4 sequence (P63330 whole entry): as the sequence (P67775 whole entry) above, with V5L counted along it
Procedure: Afterwards PP2A phosphatase activity was determined using a malachite green assay kit (upstate) following the manufacturer's instructions.

[9] = 2.5 mM, different time intervals, observed after 2-4 hours

## CN(C)C(=N)N=C(N)N [metformin, Metformin]
GSK3β
  phosphorylation of GSK3β at position Ser 9 (de-phosphorylation activates the enzyme): reduces the phosphorylation
GSK3β; listed as Metformin
  phosphorylation of GSK3β at position Ser 9 (de-phosphorylation activates the enzyme): increases the activity of GSK3β
ACC
  ACC phosphorylation (Ser79): neither metformin (FIG. 4a) nor phenformin (FIG. 12) had an effect
PP2A-holoenzymes
  activity of the immunopurified PP2A protein complex: significantly increased
α4-PP2Ac association
  amount of PP2Ac associated with α4: dissociation of α4 from PP2Ac
Human tau
  phosphorylation of human tau at Ser 202: reacted in the same way
S6
  brain S6 phosphorylation: significantly de-phosphorylated
AMPK [1]; 2.5 mM for 10 hours
  AMPK phosphorylation (pThr 172): does induce AMPK phosphorylation significantly
AMPK [1]; 2.5 mM, shorter intervals of incubation than 10 hours
  AMPK phosphorylation (pThr 172): no significant effect
AMPK [1]; smaller amounts than 2.5 mM for 24 hours
  AMPK phosphorylation (pThr 172): no significant effect
[2]; 2.5 mM, within 4 h of exposure
  S6 phosphorylation (S241/244): significant dephosphorylation
[2]; increasing concentrations of metformin, 16 hours
  S6 phosphorylation (S241/244): dose dependent decrease
[3]
  PP2A activity of purified PP2Ac: no influence
Tau [4]
  brain de-phosphorylated form of tau at position Ser 202 (tau-1 antibody): increase
  brain tau Ser202 phosphorylation: significant decrease
  brain tau Ser262 phosphorylation: significant decrease
  brain tau Ser 396 phosphorylation (PP2A independent epitope): no effect
Primary cortical neurons
  programmed cell death (percentage of apoptotic cells, TUNEL): did not cause a significant increase
MID1-α4-PP2Ac complex
  elution of MID1 B-boxes and α4 from immobilized HIS-tagged PP2Ac: could be eluted from the column by adding metformin
AMPK [5]
  brain AMPK phosphorylation (pThr 172): no induction
Tau [6]; 10 nM okadaic acid prior to 2.5 mM metformin, 4 hours
  effect on Ser202 phosphorylation of okadaic acid treated cells: no effect
Tau [6]; 100 nM, longer treatment (>24 hours)
  phosphorylation of Ser202: decreased slightly
Tau [6]; 1 μM fostriecin prior to 2.5 mM metformin, 4 hours
  effect on Ser202 phosphorylation of fostriecin pre-treated cells: did not have any effect
Tau [6]; 10 μM, longer treatment (>24 hours)
  phosphorylation of Ser202: significantly reduced
Tau [6]; 2.5 mM metformin alone over 4 hours
  phosphorylation of Ser202: decreased significantly
Tau [6]; 2.5 mM over time (Ser202, Ser262, Ser356), increasing concentration over 4 hours (Ser202)
  de-phosphorylation of PP2A dependent tau epitopes, dependence on time and dosage: increased with time (FIG. 2a) and dosage
Tau [6]; [9]
  phosphorylation of PP2A dependent tau epitope Ser202: significant decrease
  phosphorylation of PP2A dependent tau epitope Ser262: significant decrease
  phosphorylation of PP2A dependent tau epitope Ser356: significant decrease
Tau [6]; 2.5 mM, increasing time intervals
  phosphorylation of the PP2A insensitive epitope Ser396: did not change
Tau [6]; 2.5 mM, medium without insulin
  dephosphorylation of tau (Ser 202): strong dephosphorylation effect
Ribosomal protein S6
  ability to dephosphorylate S6: clearly apparent
p70S6kinase
  phosphorylation status of p70S6kinase: Results were confirmed
p70S6kinase; listed as Metformin
  phosphorylation status of p70S6kinase: decrease of pS6kinase phosphorylation
[7]
  level of metformin in the brain: 1000 nM
[8]
  peak plasma concentrations: around 12 μM
PP2A
  phosphatase (PP2A) activity in cell lysates: significantly increased phosphatase activity
